What follows are compounds tested against T1, Recombinant purified human JAK3 (Homo sapiens, UniProt P52333) (assay: JAK3 inhibitory activity test (ADP-Glo kinase assay)). Details: ATP 5 uM, 1 hour incubation at 30° C.
T1 construct: purchased Promega V9441
T1 sequence (P52333 1-1124): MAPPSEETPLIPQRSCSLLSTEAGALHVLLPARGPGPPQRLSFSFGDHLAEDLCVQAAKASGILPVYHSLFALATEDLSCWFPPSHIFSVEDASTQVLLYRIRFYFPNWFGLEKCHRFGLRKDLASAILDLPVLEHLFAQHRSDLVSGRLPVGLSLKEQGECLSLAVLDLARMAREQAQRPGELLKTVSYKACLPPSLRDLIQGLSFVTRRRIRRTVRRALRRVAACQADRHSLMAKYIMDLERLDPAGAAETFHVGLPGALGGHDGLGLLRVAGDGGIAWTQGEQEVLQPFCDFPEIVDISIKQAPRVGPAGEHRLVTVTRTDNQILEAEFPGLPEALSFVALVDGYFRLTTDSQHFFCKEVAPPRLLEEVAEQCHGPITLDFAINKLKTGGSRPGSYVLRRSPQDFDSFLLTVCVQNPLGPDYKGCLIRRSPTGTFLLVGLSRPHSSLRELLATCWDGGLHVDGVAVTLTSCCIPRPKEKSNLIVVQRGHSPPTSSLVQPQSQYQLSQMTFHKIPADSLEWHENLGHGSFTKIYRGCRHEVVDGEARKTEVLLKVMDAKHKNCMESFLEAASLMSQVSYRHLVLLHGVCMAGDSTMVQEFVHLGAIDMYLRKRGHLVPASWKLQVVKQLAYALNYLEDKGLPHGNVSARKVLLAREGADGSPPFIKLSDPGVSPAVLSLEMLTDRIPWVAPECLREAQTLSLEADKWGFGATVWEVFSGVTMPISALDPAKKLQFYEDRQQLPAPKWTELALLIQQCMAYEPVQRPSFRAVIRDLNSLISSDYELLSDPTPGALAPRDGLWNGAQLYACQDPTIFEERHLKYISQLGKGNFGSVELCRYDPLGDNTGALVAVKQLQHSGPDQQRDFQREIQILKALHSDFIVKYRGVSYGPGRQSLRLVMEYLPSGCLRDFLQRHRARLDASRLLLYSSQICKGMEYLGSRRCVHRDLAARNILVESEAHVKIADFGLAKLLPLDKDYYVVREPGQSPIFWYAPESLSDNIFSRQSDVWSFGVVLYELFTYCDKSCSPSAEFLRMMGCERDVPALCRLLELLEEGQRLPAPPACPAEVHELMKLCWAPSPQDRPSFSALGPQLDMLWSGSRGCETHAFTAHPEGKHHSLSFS
Type: biochemical
Protocol: The inhibitory activities against JAK3 were measured for the compounds prepared in the above Examples through in vitro analysis on the ADP Glow (Glo) platform.
Specifically, the inhibitory activities against JAK3 were measured using a JAK3 kinase assay kit (Promega, V9441), which was purchased from Promega. Recombinant purified human JAK3 was diluted with 1× kinase reaction buffer (JAK3: 40 mM Tris-CI, pH 7.5, 20 mM MgCl2, 0.1 mg/mL BSA and 50 uM OTT and added to a 96 well plate (JAK3: final concentration of 4 ng per reaction). The compounds prepared in the previous Examples were treated so as to be finally a 1% DMSO aqueous solution, and a substrate cocktail containing ATP (JAK3: final concentration of 5 uM) and 0.2 ug/ul of Poly(Glu4, Tyri) peptide (JAK3 final concentration) in the total 25 uL reactants was added to a 96-well plate to initiate enzymatic reaction. After incubation (30° C.) for 1 hour, equivalent volume (25 uL per reaction) of ADP Glo was added and incubated (30° C.) for 40 minutes at room temperature. Then, a kinase detection reagent (50 uL per reaction) was added and incubated (30° C.) for 30 minutes at room temperature. The kinase activity was measured by chemiluminescence according to the instructions of ADP Glo kinase assay kit, and the inhibitory activity of the compounds according to the present invention was calculated. For the analysis of the results of each compound, Microsoft Excel was used, and IC50 values were calculated by SigmaPlot software.

**Q.** With `C=CC(=O)Nc1cccc(Oc2cccc3nc(Nc4ccc(N5CCN(C)CC5)cc4)nn23)c1` [Example 1, N-(3-(2-(4-(4-methylpiperazin-1-yl)phenylamino)-[1,2,4]triazolo[1,5-a]pyridin-5-yloxy)phenyl)acrylamide] as the compound, how does the IC50 read?
**A.** 0.47 nM

**Q.** `C=CC(=O)Nc1cccc(Oc2cccc3nc(Nc4cnn(C)c4)nn23)c1` [Example 2, N-(3-(2-(1-methyl-1H-pyrazol-4-ylamino)-[1,2,4]triazolo[1,5-a]pyridin-5-yloxy)phenyl)acrylamide] was tested. Which IC50 did it give?
**A.** 1.1 nM

**Q.** `C=CC(=O)Nc1cccc(Oc2cccc3nc(Nc4ccc5ncsc5c4)nn23)c1` [Example 3, N-(3-(2-(benzo[d]thiazol-6-ylamino)-[1,2,4]triazolo[1,5-a]pyridin-5-yloxy)phenyl)acrylamide] was tested. Which IC50 did it give?
**A.** 2.4 nM

**Q.** Which IC50 does the source give for `C=CC(=O)Nc1cccc(Oc2cccc3nc(Nc4ccc(N5CCOCC5)cc4)nn23)c1` [Example 4, N-(3-(2-(4-morpholinophenylamino)-[1,2,4]triazolo[1,5-a]pyridin-5-yloxy)phenyl)acrylamide] here?
**A.** 0.6 nM

**Q.** With `C=CC(=O)Nc1cccc(Oc2cccc3nc(Nc4cccc(Oc5ccccc5)c4)nn23)c1` [Example 5, N-(3-(2-(3-phenoxyphenylamino)-[1,2,4]triazolo[1,5-a]pyridin-5-yloxy)phenyl)acrylamide] as the compound, how does the IC50 read?
**A.** 35.8 nM

**Q.** Which IC50 does the source give for `C=CC(=O)Nc1cccc(Oc2cccc3nc(Nc4ccc(N(C)C)cc4)nn23)c1` [Example 6, N-(3-(2-(4-(dimethylamino)phenylamino)-[1,2,4]triazolo[1,5-a]pyridin-5-yloxy)phenyl)acrylamide] here?
**A.** 2.1 nM

**Q.** `C=CC(=O)Nc1cccc(Oc2cccc3nc(Nc4cccc(-n5nnnc5C)c4)nn23)c1` [Example 7, N-(3-(2-(3-(5-methyl-1H-tetrazol-1-yl)phenylamino)-[1,2,4]triazolo[1,5-a]pyridin-5-yloxy)phenyl)acrylamide] was tested. Which IC50 did it give?
**A.** 1.2 nM

**Q.** How did the IC50 turn out when `C=CC(=O)Nc1cccc(Oc2cccc3nc(Nc4cnn(C(F)F)c4)nn23)c1` [Example 8, N-(3-(2-(1-(difluoromethyl)-1H-pyrazol-4-ylamino)-[1,2,4]triazolo[1,5-a]pyridin-5-yloxy)phenyl)acrylamide] was run?
**A.** 1.3 nM

**Q.** How did the IC50 turn out when `C=CC(=O)Nc1cccc(Oc2cccc3nc(Nc4cccc(-n5nc(C)cc5C)c4)nn23)c1` [Example 9, N-(3-(2-(3-(3,5-dimethyl-1H-pyrazol-1-yl)phenylamino)-[1,2,4]triazolo[1,5-a]pyridin-5-yloxy)phenyl)acrylamide] was run?
**A.** 10.4 nM

**Q.** For `C=CC(=O)Nc1cccc(Oc2cccc3nc(Nc4ccc(-n5nc(C)cc5C)cc4)nn23)c1` [Example 10, N-(3-(2-(4-(3,5-dimethyl-1H-pyrazol-1-yl)phenylamino)-[1,2,4]triazolo[1,5-a]pyridin-5-yloxy)phenyl)acrylamide], which IC50 is on record?
**A.** 3.6 nM

**Q.** For `C=CC(=O)Nc1cccc(Oc2cccc3nc(Nc4ccc5nc(Cl)sc5c4)nn23)c1` [Example 11, N-(3-(2-(2-chlorobenzo[d]thiazol-6-ylamino)-[1,2,4]triazolo[1,5-a]pyridin-5-yloxy)phenyl)acrylamide], which IC50 is on record?
**A.** 10.3 nM

**Q.** Which IC50 does the source give for `C=CC(=O)Nc1cccc(Oc2cccc3nc(Nc4ccc5scnc5c4)nn23)c1` [Example 12, N-(3-(2-(benzo[d]thiazol-5-ylamino)-[1,2,4]triazolo[1,5-a]pyridin-5-yloxy)phenyl)acrylamide] here?
**A.** 2.6 nM

**Q.** For `C=CC(=O)Nc1cccc(Oc2cccc3nc(Nc4ccc(Oc5ccccc5)cc4)nn23)c1` [Example 13, N-(3-(2-(4-phenoxyphenylamino)-[1,2,4]triazolo[1,5-a]pyridin-5-yloxy)phenyl)acrylamide], which IC50 is on record?
**A.** 9.8 nM

**Q.** For `C=CC(=O)Nc1cccc(Oc2cccc3nc(Nc4cnn(Cc5cccc(OC)c5)c4)nn23)c1` [Example 14, N-(3-(2-(1-(3-methoxybenzyl)-1H-pyrazol-4-ylamino)-[1,2,4]triazolo[1,5-a]pyridin-5-yloxy)phenyl)acrylamide], which IC50 is on record?
**A.** 11.1 nM

**Q.** How did the IC50 turn out when `C=CC(=O)Nc1cccc(Oc2cccc3nc(Nc4ccc(OCCN(CC)CC)cc4)nn23)c1` [Example 15, N-(3-(2-(4-(2-(diethylamino)ethoxy)phenylamino)-[1,2,4]triazolo[1,5-a]pyridin-5-yloxy)phenyl)acrylamide] was run?
**A.** 6.2 nM

**Q.** `C=CC(=O)Nc1cccc(Oc2cccc3nc(Nc4ccc(CN(C)C)cc4)nn23)c1` [Example 16, N-(3-(2-(4-((dimethylamino)methyl)phenylamino)-[1,2,4]triazolo[1,5-a]pyridin-5-yloxy)phenyl)acrylamide] was tested. Which IC50 did it give?
**A.** 0.7 nM

**Q.** `C=CC(=O)Nc1cccc(Oc2cccc3nc(Nc4ccc(C(=O)N5CCOCC5)cc4)nn23)c1` [Example 17, N-(3-(2-(4-(morpholine-4-carbonyl)phenylamino)-[1,2,4]triazolo[1,5-a]pyridin-5-yloxy)phenyl)acrylamide] was tested. Which IC50 did it give?
**A.** 0.7 nM

**Q.** For `C=CC(=O)Nc1cccc(Oc2cccc3nc(Nc4ccc(S(=O)(=O)N5CCCCC5)cc4)nn23)c1` [Example 18, N-(3-(2-(4-(piperidin-1-ylsulfonyl)phenylamino)-[1,2,4]triazolo[1,5-a]pyridin-5-yloxy)phenyl)acrylamide], which IC50 is on record?
**A.** 3 nM

**Q.** `C=CC(=O)Nc1cccc(Oc2cccc3nc(Nc4cnn(CCN5CCOCC5)c4)nn23)c1` [Example 19, N-(3-(2-(1-(2-morpholinoethyl)-1H-pyrazol-4-ylamino)-[1,2,4]triazolo[1,5-a]pyridin-5-yloxy)phenyl)acrylamide] was tested. Which IC50 did it give?
**A.** 5.1 nM

**Q.** `CC#CC(=O)Nc1cccc(Oc2cccc3nc(Nc4ccc(N5CCN(C)CC5)cc4)nn23)c1` [Example 20, N-(3-(2-(4-(4-methylpiperazin-1-yl)phenylamino)-[1,2,4]triazolo[1,5-a]pyridin-5-yloxy)phenyl)but-2-ynamide] was tested. Which IC50 did it give?
**A.** 0.6 nM

**Q.** For `C=CC(=O)Nc1cccc(Oc2cccc3nc(Nc4ccc(N5CCOCC5)nc4)nn23)c1` [Example 21, N-(3-(2-(6-morpholinopyridin-3-ylamino)-[1,2,4]triazolo[1,5-a]pyridin-5-yloxy)phenyl)acrylamide], which IC50 is on record?
**A.** 0.7 nM

**Q.** Which IC50 does the source give for `C=CC(=O)Nc1cccc(Oc2cccc3nc(Nc4nc5ccc(Cl)cc5s4)nn23)c1` [Example 22, N-(3-(2-(6-chlorobenzo[d]thiazol-2-ylamino)-[1,2,4]triazolo[1,5-a]pyridin-5-yloxy)phenyl)acrylamide] here?
**A.** > 400 nM

**Q.** `C=CC(=O)Nc1cccc(Oc2cccc3nc(Nc4cccc5ccccc45)nn23)c1` [Example 23, N-(3-(2-(naphthalen-1-ylamino)-[1,2,4]triazolo[1,5-a]pyridin-5-yloxy)phenyl)acrylamide] was tested. Which IC50 did it give?
**A.** > 400 nM

**Q.** `C=CC(=O)Nc1cccc(Oc2cccc3nc(Nc4cnc5ccccc5c4)nn23)c1` [Example 24, N-(3-(2-(quinolin-3-ylamino)-[1,2,4]triazolo[1,5-a]pyridin-5-yloxy)phenyl)acrylamide] was tested. Which IC50 did it give?
**A.** 15.5 nM

**Q.** For `C=CC(=O)Nc1cccc(Oc2cccc3nc(Nc4cnc5onc(C)c5c4)nn23)c1` [Example 25, N-(3-(2-(3-methylisoxazolo[5,4-b]pyridin-5-ylamino)-[1,2,4]triazolo[1,5-a]pyridin-5-yloxy)phenyl)acrylamide], which IC50 is on record?
**A.** 105 nM

**Q.** For `C=CC(=O)Nc1cccc(Oc2cccc3nc(Nc4cnc5ncn(C)c5c4)nn23)c1` [Example 26, N-(3-(2-(1-methyl-1H-imidazo[4,5-b]pyridin-6-ylamino)-[1,2,4]triazolo[1,5-a]pyridin-5-yloxy)phenyl)acrylamide], which IC50 is on record?
**A.** > 80 nM

From US20220389010A1, “Novel Triazolopyridine Derivatives and Pharmaceutical Composition Comprising Same” (Daewoong Pharmaceutical Co., Ltd., priority 2019, published 2022)
